Experiments:
Test in all cases: radiometric filter-binding kinase assay, Kinase HotSpot
Details in all cases: compound 0.5 µM; ATP 10 µM
WNK2 (human) = WNK2 (human) (UniProt Q9Y3S1)
HCK (human) = HCK (human) (UniProt P08631)
ULK1 (human) = ULK1 (human) (UniProt O75385)
AURKA (human) = AURKA (human) (UniProt O14965)
CDK2 CCNA2 (human) = CDK2 CCNA2 (human) (UniProt P24941+P20248)
CDK4 CCND3 (human) = CDK4 CCND3 (human) (UniProt P30281+P11802)
CLK4 (human) = CLK4 (human) (UniProt Q9HAZ1)
EPHA2 (human) = EPHA2 (human) (UniProt P29317)
GRK4 (human) = GRK4 (human) (UniProt P32298)
EPHA1 (human) = EPHA1 (human) (UniProt P21709)
RPS6KB2 (human) = RPS6KB2 (human) (UniProt Q9UBS0)
HIPK2 (human) = HIPK2 (human) (UniProt Q9H2X6)
Chain of HIPK2 (human) (Q9H2X6 whole entry, looked up): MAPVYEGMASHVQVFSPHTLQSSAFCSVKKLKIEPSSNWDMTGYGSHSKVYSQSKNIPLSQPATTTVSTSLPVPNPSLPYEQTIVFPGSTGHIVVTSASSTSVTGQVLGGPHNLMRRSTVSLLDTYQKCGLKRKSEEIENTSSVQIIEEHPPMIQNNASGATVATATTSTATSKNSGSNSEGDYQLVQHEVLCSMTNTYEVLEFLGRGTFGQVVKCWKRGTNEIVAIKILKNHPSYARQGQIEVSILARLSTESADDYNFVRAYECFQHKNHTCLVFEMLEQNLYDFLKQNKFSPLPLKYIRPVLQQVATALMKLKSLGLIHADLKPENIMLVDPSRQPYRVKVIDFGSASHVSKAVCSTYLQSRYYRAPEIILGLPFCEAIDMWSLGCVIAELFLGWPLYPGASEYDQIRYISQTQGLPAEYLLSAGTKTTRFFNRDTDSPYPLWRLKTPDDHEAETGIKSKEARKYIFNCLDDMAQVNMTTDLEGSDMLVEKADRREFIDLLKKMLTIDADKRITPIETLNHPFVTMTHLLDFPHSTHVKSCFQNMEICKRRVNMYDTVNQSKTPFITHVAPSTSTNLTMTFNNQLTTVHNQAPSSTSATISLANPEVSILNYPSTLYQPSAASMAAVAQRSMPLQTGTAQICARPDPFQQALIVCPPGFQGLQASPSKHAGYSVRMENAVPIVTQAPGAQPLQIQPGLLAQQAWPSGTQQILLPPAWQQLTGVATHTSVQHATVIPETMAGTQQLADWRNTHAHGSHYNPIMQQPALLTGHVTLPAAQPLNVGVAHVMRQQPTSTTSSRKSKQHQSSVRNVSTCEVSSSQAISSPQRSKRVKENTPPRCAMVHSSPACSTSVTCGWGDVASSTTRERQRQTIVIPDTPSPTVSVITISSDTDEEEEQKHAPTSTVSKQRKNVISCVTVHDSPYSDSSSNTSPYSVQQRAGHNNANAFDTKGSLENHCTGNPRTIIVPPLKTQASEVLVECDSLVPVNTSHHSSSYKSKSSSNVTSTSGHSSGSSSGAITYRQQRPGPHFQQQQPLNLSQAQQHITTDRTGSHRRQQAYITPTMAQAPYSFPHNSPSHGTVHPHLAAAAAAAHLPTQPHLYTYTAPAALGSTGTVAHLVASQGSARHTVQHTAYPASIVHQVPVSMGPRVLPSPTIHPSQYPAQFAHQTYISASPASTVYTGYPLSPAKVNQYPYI

CSNK2A2 (human) = CSNK2A2 (human) (UniProt P19784)
ULK2 (human) = ULK2 (human) (UniProt Q8IYT8)
VRK1 (human) = VRK1 (human) (UniProt Q99986)
TBK1 (human) = TBK1 (human) (UniProt Q9UHD2)
RPS6KA3 KD1 KD2 (human) = RPS6KA3 KD1 KD2 (human) (UniProt P51812)
MAPKAPK3 (human) = MAPKAPK3 (human) (UniProt Q16644)
Chain of MAPKAPK3 (human) (Q16644 whole entry, looked up): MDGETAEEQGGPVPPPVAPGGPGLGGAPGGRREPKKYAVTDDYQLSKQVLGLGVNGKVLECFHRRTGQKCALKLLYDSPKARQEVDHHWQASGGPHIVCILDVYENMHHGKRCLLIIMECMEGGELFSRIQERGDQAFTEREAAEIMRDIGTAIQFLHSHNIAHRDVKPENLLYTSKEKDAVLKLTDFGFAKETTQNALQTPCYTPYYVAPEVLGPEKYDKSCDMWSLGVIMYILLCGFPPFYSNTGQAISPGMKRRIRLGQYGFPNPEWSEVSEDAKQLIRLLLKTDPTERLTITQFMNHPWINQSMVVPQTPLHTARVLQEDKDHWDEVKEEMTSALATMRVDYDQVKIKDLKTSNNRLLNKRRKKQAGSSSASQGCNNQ

NTRK1 (human) = NTRK1 (human) (UniProt P04629)
NEK11 (human) = NEK11 (human) (UniProt Q8NG66)
PNCK (human) = PNCK (human) (UniProt Q6P2M8)
CDK1 CCNB1 (human) = CDK1 CCNB1 (human) (UniProt P06493+P14635)
PRKCE (human) = PRKCE (human) (UniProt Q02156)
PKN2 (human) = PKN2 (human) (UniProt Q16513)
MAP3K9 (human) = MAP3K9 (human) (UniProt P80192)
EPHB3 (human) = EPHB3 (human) (UniProt P54753)
ACVRL1 (human) = ACVRL1 (human) (UniProt P37023)
NUAK2 (human) = NUAK2 (human) (UniProt Q9H093)
SRMS (human) = SRMS (human) (UniProt Q9H3Y6)
CSNK2A1 (human) = CSNK2A1 (human) (UniProt P68400)
[1] = system: FLT4 (human), P35916 [Q890H]
PIM1 (human) = PIM1 (human) (UniProt P11309)
ERBB2 (human) = ERBB2 (human) (UniProt P04626)
CDK5 CDK5R1 p25 (human) = CDK5 CDK5R1 p25 (human) (UniProt Q00535+Q15078)
SRPK2 (human) = SRPK2 (human) (UniProt P78362)
GRK6 (human) = GRK6 (human) (UniProt P43250)
ROS1 (human) = ROS1 (human) (UniProt P08922)
FGFR4 (human) = FGFR4 (human) (UniProt P22455)
WEE1 (human) = WEE1 (human) (UniProt P30291)
Chain of WEE1 (human) (P30291 whole entry, looked up): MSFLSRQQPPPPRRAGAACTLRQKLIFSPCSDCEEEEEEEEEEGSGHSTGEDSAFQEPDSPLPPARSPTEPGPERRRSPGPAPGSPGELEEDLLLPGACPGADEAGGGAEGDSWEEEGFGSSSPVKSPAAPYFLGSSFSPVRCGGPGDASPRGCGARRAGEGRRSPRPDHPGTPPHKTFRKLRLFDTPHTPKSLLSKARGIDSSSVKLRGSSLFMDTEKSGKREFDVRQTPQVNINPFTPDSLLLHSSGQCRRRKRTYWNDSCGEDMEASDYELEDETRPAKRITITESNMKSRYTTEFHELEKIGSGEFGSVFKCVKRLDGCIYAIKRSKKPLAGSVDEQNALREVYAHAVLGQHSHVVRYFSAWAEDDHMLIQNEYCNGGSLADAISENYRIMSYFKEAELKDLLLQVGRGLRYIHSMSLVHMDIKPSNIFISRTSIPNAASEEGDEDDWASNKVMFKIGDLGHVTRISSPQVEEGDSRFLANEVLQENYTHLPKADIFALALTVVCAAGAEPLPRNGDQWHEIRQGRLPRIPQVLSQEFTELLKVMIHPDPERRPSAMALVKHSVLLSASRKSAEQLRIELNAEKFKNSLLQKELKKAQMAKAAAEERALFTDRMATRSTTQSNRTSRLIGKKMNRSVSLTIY

MET (human) = MET (human) (UniProt P08581)
RPS6KA4 KD2 (human) = RPS6KA4 KD2 (human) (UniProt O75676)

Chain of WNK2 (human) (Q9Y3S1 whole entry, looked up): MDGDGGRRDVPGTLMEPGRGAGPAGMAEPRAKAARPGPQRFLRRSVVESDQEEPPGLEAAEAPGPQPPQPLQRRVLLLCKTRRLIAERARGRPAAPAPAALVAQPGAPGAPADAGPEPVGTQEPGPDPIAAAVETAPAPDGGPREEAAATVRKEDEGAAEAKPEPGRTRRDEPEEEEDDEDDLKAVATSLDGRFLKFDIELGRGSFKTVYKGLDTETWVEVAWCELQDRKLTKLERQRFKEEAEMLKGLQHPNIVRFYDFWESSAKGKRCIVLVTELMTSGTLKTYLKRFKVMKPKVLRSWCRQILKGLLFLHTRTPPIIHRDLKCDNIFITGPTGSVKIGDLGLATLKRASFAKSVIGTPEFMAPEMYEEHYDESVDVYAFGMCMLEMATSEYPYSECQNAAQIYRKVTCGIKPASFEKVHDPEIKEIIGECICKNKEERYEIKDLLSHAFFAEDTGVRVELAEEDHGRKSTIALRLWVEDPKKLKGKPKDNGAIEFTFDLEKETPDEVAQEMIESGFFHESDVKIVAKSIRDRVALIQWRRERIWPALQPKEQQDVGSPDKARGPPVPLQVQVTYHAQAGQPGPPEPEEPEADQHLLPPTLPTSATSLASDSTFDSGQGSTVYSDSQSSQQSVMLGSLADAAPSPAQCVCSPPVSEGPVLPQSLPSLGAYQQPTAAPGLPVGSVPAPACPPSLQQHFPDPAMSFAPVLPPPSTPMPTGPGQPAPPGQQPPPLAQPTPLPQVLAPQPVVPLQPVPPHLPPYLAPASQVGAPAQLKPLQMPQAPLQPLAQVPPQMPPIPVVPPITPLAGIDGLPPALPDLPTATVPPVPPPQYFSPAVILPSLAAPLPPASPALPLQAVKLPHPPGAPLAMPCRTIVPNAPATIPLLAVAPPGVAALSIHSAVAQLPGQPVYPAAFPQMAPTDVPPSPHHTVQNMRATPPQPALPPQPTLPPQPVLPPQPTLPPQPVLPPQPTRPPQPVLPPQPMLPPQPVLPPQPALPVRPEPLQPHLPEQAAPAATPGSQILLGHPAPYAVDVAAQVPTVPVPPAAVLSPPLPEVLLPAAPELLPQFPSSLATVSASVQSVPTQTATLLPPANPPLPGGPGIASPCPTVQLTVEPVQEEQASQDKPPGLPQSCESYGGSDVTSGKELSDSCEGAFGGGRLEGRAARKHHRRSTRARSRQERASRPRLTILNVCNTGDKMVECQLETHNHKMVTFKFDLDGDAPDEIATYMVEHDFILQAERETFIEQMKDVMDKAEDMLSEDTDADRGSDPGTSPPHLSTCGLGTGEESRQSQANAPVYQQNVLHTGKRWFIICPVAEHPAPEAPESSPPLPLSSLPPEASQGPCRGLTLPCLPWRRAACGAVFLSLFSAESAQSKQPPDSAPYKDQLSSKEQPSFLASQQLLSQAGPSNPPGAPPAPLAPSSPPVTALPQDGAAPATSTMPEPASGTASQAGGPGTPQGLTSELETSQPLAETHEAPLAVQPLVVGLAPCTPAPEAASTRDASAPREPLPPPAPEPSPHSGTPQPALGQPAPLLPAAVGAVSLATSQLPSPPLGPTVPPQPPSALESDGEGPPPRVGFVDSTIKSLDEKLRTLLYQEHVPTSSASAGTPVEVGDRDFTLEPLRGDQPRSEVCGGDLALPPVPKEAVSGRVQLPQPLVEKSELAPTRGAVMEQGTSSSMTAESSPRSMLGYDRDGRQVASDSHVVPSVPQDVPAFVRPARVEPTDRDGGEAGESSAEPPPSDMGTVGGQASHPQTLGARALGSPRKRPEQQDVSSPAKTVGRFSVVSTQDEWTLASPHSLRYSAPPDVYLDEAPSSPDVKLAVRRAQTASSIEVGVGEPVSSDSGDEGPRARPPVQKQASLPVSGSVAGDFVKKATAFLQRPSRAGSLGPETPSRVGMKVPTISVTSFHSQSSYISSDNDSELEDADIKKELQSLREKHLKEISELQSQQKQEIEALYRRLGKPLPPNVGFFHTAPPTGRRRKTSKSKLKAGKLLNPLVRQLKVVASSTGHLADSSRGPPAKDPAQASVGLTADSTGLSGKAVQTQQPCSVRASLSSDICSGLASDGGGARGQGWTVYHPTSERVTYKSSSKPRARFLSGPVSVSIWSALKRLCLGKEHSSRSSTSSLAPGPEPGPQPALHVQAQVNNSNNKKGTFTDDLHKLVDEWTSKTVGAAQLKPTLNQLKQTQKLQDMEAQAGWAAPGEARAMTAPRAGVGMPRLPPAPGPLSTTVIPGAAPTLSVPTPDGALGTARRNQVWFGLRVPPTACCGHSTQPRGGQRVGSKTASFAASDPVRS
Chain of CDK2 CCNA2 (human) (P20248 whole entry, looked up, other chains not shown): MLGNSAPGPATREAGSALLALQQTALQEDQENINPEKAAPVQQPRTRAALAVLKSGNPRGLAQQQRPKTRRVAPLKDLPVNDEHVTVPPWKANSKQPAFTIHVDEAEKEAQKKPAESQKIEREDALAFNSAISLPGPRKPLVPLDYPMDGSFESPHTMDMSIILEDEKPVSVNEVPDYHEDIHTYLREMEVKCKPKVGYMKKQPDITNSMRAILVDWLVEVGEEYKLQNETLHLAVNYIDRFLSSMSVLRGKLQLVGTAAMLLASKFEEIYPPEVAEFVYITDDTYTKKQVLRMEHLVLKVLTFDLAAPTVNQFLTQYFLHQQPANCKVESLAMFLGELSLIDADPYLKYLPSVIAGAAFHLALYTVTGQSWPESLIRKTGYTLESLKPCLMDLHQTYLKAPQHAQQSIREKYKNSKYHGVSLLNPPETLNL

SMILES	residual activity (WNK2 (human)) [%]	residual activity (HCK (human)) [%]	residual activity (ULK1 (human)) [%]	residual activity (AURKA (human)) [%]	residual activity (CDK2 CCNA2 (human)) [%]	residual activity (CDK4 CCND3 (human)) [%]	residual activity (CLK4 (human)) [%]	residual activity (EPHA2 (human)) [%]	residual activity (GRK4 (human)) [%]	residual activity (EPHA1 (human)) [%]	residual activity (RPS6KB2 (human)) [%]	residual activity (HIPK2 (human)) [%]	residual activity (CSNK2A2 (human)) [%]	residual activity (ULK2 (human)) [%]	residual activity (VRK1 (human)) [%]	residual activity (TBK1 (human)) [%]	residual activity (RPS6KA3 KD1 KD2 (human)) [%]	residual activity (MAPKAPK3 (human)) [%]	residual activity (NTRK1 (human)) [%]	residual activity (NEK11 (human)) [%]	also measured
Cc1cccc(-c2nc(C(C)(C)C)[nH]c2-c2ccc3c(c2)OCO3)n1	105	90.7	82.7	93.4	117	102	95.8	99.2	101	124	102	101	83.6	75.4	97.5	91.9	82.4	94.1	96.5	90.3	residual activity (PNCK (human)): 101%; residual activity (CDK1 CCNB1 (human)): 100%; residual activity (PRKCE (human)): 97.9%; residual activity (PKN2 (human)): 93.5%; residual activity (MAP3K9 (human)): 94%; residual activity (EPHB3 (human)): 103%; residual activity (ACVRL1 (human)): 127%; residual activity (NUAK2 (human)): 138%; residual activity (SRMS (human)): 102%; residual activity (CSNK2A1 (human)): 98%; residual activity [1]: 99.8%; residual activity (PIM1 (human)): 100%; residual activity (ERBB2 (human)): 102%; residual activity (CDK5 CDK5R1 p25 (human)): 90.1%; residual activity (SRPK2 (human)): 95.8%; residual activity (GRK6 (human)): 101%; residual activity (ROS1 (human)): 101%; residual activity (FGFR4 (human)): 73.8%; residual activity (WEE1 (human)): 81.5%; residual activity (MET (human)): 82.7%
NC(=O)c1cccc(-c2cc(Nc3ccc(OC(F)(F)F)cc3)ncn2)c1	115	92.9	97.5	107	96.5	98.4	97.8	94.9	94.8	90.1	102	102	92.7	103	97.9	92.4	101	98	96.6	98.3	residual activity (PNCK (human)): 109%; residual activity (CDK1 CCNB1 (human)): 92.5%; residual activity (RPS6KA4 KD2 (human)): 85.8%; residual activity (PRKCE (human)): 111%; residual activity (PKN2 (human)): 89.8%; residual activity (MAP3K9 (human)): 95.7%; residual activity (EPHB3 (human)): 98%; residual activity (ACVRL1 (human)): 99.2%; residual activity (NUAK2 (human)): 87.8%; residual activity (SRMS (human)): 93.4%; residual activity (CSNK2A1 (human)): 94.6%; residual activity [1]: 98.5%; residual activity (PIM1 (human)): 101%; residual activity (ERBB2 (human)): 89.5%; residual activity (CDK5 CDK5R1 p25 (human)): 80.1%; residual activity (SRPK2 (human)): 105%; residual activity (GRK6 (human)): 101%; residual activity (FGFR4 (human)): 92.9%; residual activity (WEE1 (human)): 98.9%; residual activity (MET (human)): 135%
O=C1C(Cl)=C(N2C(=O)CCC2=O)C(=O)c2ccccc21	108	94.2	107	105	109	107	94.1	107	97.6	97.6	102	104	100	108	92.4	97.9	101	103	97	101	residual activity (PNCK (human)): 100%; residual activity (CDK1 CCNB1 (human)): 118%; residual activity (RPS6KA4 KD2 (human)): 115%; residual activity (PKN2 (human)): 108%; residual activity (MAP3K9 (human)): 106%; residual activity (EPHB3 (human)): 97%; residual activity (ACVRL1 (human)): 105%; residual activity (NUAK2 (human)): 86.7%; residual activity (SRMS (human)): 108%; residual activity (CSNK2A1 (human)): 99.3%; residual activity [1]: 102%; residual activity (PIM1 (human)): 100%; residual activity (ERBB2 (human)): 95.4%; residual activity (CDK5 CDK5R1 p25 (human)): 87.3%; residual activity (SRPK2 (human)): 100%; residual activity (GRK6 (human)): 98.5%; residual activity (ROS1 (human)): 95.8%; residual activity (FGFR4 (human)): 105%; residual activity (WEE1 (human)): 93%; residual activity (MET (human)): 109%

Reference: the kinase profiling compilation of Christmann-Franck et al. (2016)
